Converted amounts (≈) assume the structure as drawn. “And” between values parts separate entries of the source, which are not always exact repeats. Identical values can stand only once.
Tests used:
[1] = test system: S. aureus strain SH1000; test: MIC by broth microdilution (CLSI), strain SH1000; type: cell-based; conditions: Staphylococcus aureus; SH1000 (MSSA), Mueller–Hinton broth
Procedure: (§1) Community-acquired MRSA (CA-MRSA) strain USA300, its isogenic agr mutant,[17] the hospital-acquired MRSA (HA-MRSA) strain BH1CC,[18] the HA-MSSA strain BH48[19] and the MSSA strain SH1000[20] were cultured in Mueller–Hinton broth for susceptibility testing or in RPMI-1640 (Gibco) for biofilm formation. For the rat jugular vein catheter infection model, the S. aureus strain USA300 (LAC) lux[21] was used.
(§2) 5HE-C14-TMA and C14-TOA were synthesized as described previously[9] and C14-TTA as described in the Supplementary data available at JAC Online. Stock solutions of the compounds in DMSO at 10–50 mM were further diluted into tissue culture media or sodium chloride for the in vivo experiments. A DMSO solvent control was used in all in vitro experiments. The following antibiotics were used: vancomycin (Vancocin; Flynn Pharma Ltd., Republic of Ireland), daptomycin (Cubicin; Novartis, UK), gentamicin (Hospira, UK) and tigecycline (Tygacil; Pfizer Inc.). MICs were determined by broth microdilution in Mueller–Hinton broth, as recommended by the CLSI.

[2] = test system: S. aureus strain BH48; test: MIC by broth microdilution (CLSI), strain BH48; type: cell-based; conditions: Staphylococcus aureus; BH48 (MSSA), Mueller–Hinton broth
Procedure: as §1, §2

[3] = test system: S. aureus transmembrane potential; test: Dissipation of bacterial membrane potential, DiSC3(5) fluorescence; type: cell-based, Staphylococcus aureus; conditions: 30 μM
Procedure: Transmembrane potential was determined as described by Breeuwer and Abee[23] Staphylococcal cells were resuspended in potassium phosphate buffer (50 mM, pH 7) containing 5 μM of the cationic fluorescent dye DiSC3(5) (Invitrogen) and fluorescence determined (excitation 650 nm, emission 680 nm).

[4] = test system: S. aureus biofilms; test: Biofilm susceptibility, resazurin-conversion assay on plasma-coated wells; type: cell-based, Staphylococcus aureus
Procedure: (§3) Biofilms were formed as previously described to mimic in vivo conditions that promote formation of coagulase-mediated biofilms.[16] Briefly, microtitre plates or glass-bottom culture dishes (MaTek Co., USA) were coated with either 20% (v/v) or 100% (v/v) human plasma, respectively, and inoculated with S. aureus at an OD600 ∼0.2. After 1 h, non-adherent bacteria were aspirated, replaced with fresh RPMI-1640 and biofilms allowed to form over 24 h at 37 °C. Pre-formed biofilms were treated for 24 h with either 5HE-C14-TMA, C14-TOA or C14-TTA or a positive control [ethanol at 40% (v/v)]. Biofilm viability was measured by (i) resazurin-conversion assay (in microtitre wells), or (ii) live/dead imaging (glass-bottom dishes). Conversion of the non-fluorescent redox dye, resazurin into the fluorescent resorufin was performed as described previously.[16] A 44 μM resazurin (Sigma-Aldrich, UK) solution in RPMI-1640 was added to an equal biofilm volume and incubated for 1 h at 37 °C. Fluorescence (excitation 544 nm, emission 590 nm) was quantified using a Perkin Elmer 2030 Multilabel Reader Victor^TM X3. Biofilms were stained with SYTO9 Green (at 13.36 μM) and propidium iodide (at 80 μM) (Molecular Probes®) for 1 h prior to washing. Four representative images at ×40 and ×100 were obtained per experimental group, per experiment using a Zeiss LSM 510 META confocal microscope. Each experiment was repeated at least three times. Fluorescence intensity was quantified using Image J1 software (http://imagej.net/Welcome).

[5] = test system: S. aureus USA300 and SH1000 biofilms; test: Biofilm viability by live/dead imaging; type: cell-based, Staphylococcus aureus; conditions: 128 mg/L, 24 h, both strains (USA300 MRSA and SH1000 MSSA), live/dead staining
Procedure: as §3, with “Four representative images at ×40 and ×100 were obtained per experimental group, per experiment using a Zeiss LSM 510 META confocal microscope. Each experiment was repeated at least three times.” left out

[6] = MTT cell viability assay, HaCaT; type: cell-based, Human; conditions: human, HaCaT keratinocyte cells; HaCaT, MTT, 24 h
Procedure: (§4) Human keratinocyte (HaCaT) cells were cultured in DMEM supplemented with 10% (v/v) FBS. Primary human umbilical vein endothelial cells (HUVECs) were cultured in EGM™-2 Bulletkit (Lonza) medium. HaCaT and HUVECs were harvested using TrypLE^TM Express (Gibco). Cells were seeded in microtitre plates at 3 × 10^5 cells/mL and incubated for 24 h at 37 °C with an antimicrobial compound ([…]) or Triton X100 at 1% (v/v). After removing the medium, cells were incubated with 500 mg/L MTT (Sigma-Aldrich) for 4 h. The crystals formed were solubilized with DMSO. Absorbance was recorded at 560 nm and the CC50 was determined.

[7] = test system: Human keratinocyte (HaCaT) cells; test: MTT cell viability assay, HaCaT; type: cell-based; conditions: HaCaT cells
Procedure: as §4

[8] = MTT cell viability assay, HUVEC; type: cell-based, human; conditions: human, primary HUVECs (umbilical vein endothelial cells); HUVEC, MTT, 24 h
Procedure: as §4

[9] = test system: Primary human umbilical vein endothelial cells (HUVECs); test: MTT cell viability assay, HUVEC; type: cell-based; conditions: HUVECs
Procedure: as §4

[10] = Haemolysis assay; type: cell-based; conditions: red blood cells; human RBC; read-out: CC50 (haemolytic activity)
Procedure: Human blood containing EDTA (1.6 g/L) was centrifuged at 1000 g for 5 min. Red blood cells (RBC) were washed twice with PBS, diluted 2-fold and incubated with compounds or Triton X100 (positive control) at 0.5% (v/v). A570 was determined to quantify haemolysis. IC50s were derived from the corresponding dose–response curves.

[11] = test system: IL-8 and TNF-α release in human blood; type: cell-based
Procedure: EDTA-treated human blood was incubated in microtitre wells containing either S. aureus USA300 biofilm, 5HE-C14-TMA (at 256 mg/L) only or biofilm with 5HE-C14-TMA (at 256 mg/L) and incubated for 2 h at 37 °C. Plasma samples were collected by centrifugation (1000 g) and assayed for human cytokines using a Bio-Plex 200 (Bio-Rad). A standard curve was employed to maximize sensitivity for samples containing low cytokine levels. At least three different donor blood samples (with three replicates for each) were used.

[12] = test system: S. aureus; conditions: cited from earlier work
[13] = test system: agr quorum sensing system; design: method as in PMID 24592914; conditions: S. aureus; cited from earlier work
[14] = test system: staphylococcal membrane; design: method as in PMID 24592914; conditions: binding to the staphylococcal membrane, single site model; cited from earlier work
[15] = 256 mg/L for 2 h, sub-bactericidal dose

**Q.** Which MIC [1] does the source give for `CCCCCCCCCCCCCC(=O)C1=C(O)N[C@@H](CCO)C1=O` [5HE-C14-TMA, 5-hydroxyethyl-3-tetradecanoyltetramic acid] here?
**A.** 6.25 µM and 2 µg/mL

**Q.** And the MIC [2]?
**A.** 6.25 µM and 2 µg/mL

**Q.** What about the “Membrane depolarization (DiSC3(5) fluorescence)” value [3] of the same compound?
**A.** increase in fluorescence, indicative of membrane depolarization

**Q.** And the “Reduction of biofilm viability” value ([4]; 1024 mg/L, 24 h treatment, depending on the strain, resazurin)?
**A.** 7–20 fold

**Q.** And the “Concentration giving complete killing / eradication of S. aureus biofilms” value ([4]; MRSA and MSSA biofilms)?
**A.** 512 to 1024 mg/L

**Q.** What about the Biofilm killing [5] of the same compound?
**A.** > 50%

**Q.** What about the CC50 at 24 h [6] of the same compound?
**A.** 181 µM and 64 µg/mL

**Q.** And the “Selectivity index (SI, CC50/MIC)” value [7]?
**A.** 32

**Q.** What about the CC50 at 24 h [8] of the same compound?
**A.** 19 µM and 7 µg/mL

**Q.** What about the “Selectivity index (SI, CC50/MIC)” value [9] of the same compound?
**A.** 3.5

**Q.** What about the CC50 [10] of the same compound?
**A.** 246 µM and 87 µg/mL

**Q.** And the “IL-8 level in blood exposed to USA300 biofilm with compound” value [11, 15]?
**A.** substantial reductions

**Q.** What about the “TNF-α level in blood exposed to USA300 biofilm with compound” value [11, 15] of the same compound?
**A.** substantial reductions

**Q.** What about the “Cytokine levels in whole human blood, agent only” value ([11]; 256 mg/L, 2 h, no biofilm) of the same compound?
**A.** no increase in cytokine levels

**Q.** What about the “IL-8 and TNF-α levels in response to USA300 agr mutant biofilm with compound” value ([11]; same dose (256 mg/L), agr mutant biofilm) of the same compound?
**A.** no further effect

**Q.** And the “Increase in growth inhibitory activity relative to 5HE-C10-TMA” value ([12]; planktonic S. aureus)?
**A.** 8 fold

**Q.** And the MIC ([12]; towards S. aureus)?
**A.** 12.5 µM (≈ 4.42 µg/mL)

**Q.** What about the IC50 [13] of the same compound?
**A.** 14 µM

**Q.** What about the Kd [14] of the same compound?
**A.** 4 µM

— publication PMC5400099, “5-Hydroxyethyl-3-tetradecanoyltetramic acid represents a novel treatment for intravascular catheter infections due to Staphylococcus aureus” (Journal of Antimicrobial Chemotherapy, 2016)
